Reference: patent publication US7776865B2, “Substituted pyrazolo[1,5-a]pyrimidines as protein kinase inhibitors” (Schering Corporation, priority 2005, dated 2010)
Like-named read-outs stand apart in the source and are kept apart here.

How the values were obtained:
recombinant His-CHK1 = target: T1, recombinant His-CHK1 (Homo sapiens, UniProt O14757); assay: CHK1 SPA Assay; type: biochemical; details: CDC25C biotinylated peptide substrate, 1 uM ATP
T1 construct: His-CHK1, In House Lot P976, MW ˜30 KDa, stored at −80° C; fused on or other part: His tag
T1 sequence (O14757 1-265 limits assumed): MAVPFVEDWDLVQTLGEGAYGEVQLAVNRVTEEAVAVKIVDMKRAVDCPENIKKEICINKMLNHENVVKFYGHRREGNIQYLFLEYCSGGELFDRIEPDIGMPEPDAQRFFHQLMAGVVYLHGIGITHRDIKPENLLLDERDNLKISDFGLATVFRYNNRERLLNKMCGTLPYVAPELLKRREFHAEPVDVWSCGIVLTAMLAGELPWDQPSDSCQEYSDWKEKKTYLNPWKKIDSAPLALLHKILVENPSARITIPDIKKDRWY

CDK2/cyclin A = target: T2, CDK2/cyclin A (Homo sapiens, UniProt P24941); assay: CDK2 Assay (in vitro kinase assay, cyclin A-dependent); type: biochemical
T2 construct: made in house; host or cells: SF9 cells (recombinant baculovirus, pFASTBAC)

[1] = SPA, biotinylated Histone H1 peptide substrate, read-out: CDK2/cyclin A IC50
[2] = read-out: CDK2/cyclin A IC50, SPA, biotinylated Histone H1 peptide substrate

| SMILES | IC50 (recombinant His-CHK1; CHK1 IC50 [nM]) [nM] | IC50 (recombinant His-CHK1; read-out: CHK1 IC50) [nM] | further results |
| --- | --- | --- | --- |
| Cn1cc(-c2cnn3c(N)c(-c4ccncc4)c(C4CCCNC4)nc23)cn1 (centres unmarked) | 229 |  | IC50 (CDK2/cyclin A; [1]): 11300 nM |
| Cn1cc(-c2cnn3c(N)c(-c4ccccc4)c(C4CCCNC4)nc23)cn1 (centres unmarked) | 563 |  |  |
| Cn1cc(-c2cnn3c(N)c(-c4ccsc4)c(C4CCCNC4)nc23)cn1 (centres unmarked) | 160 |  | IC50 (CDK2/cyclin A; [1]): 2150 nM |
| Cn1cc(-c2cnn3c(N)c(-c4ccoc4)c(C4CCCNC4)nc23)cn1 (centres unmarked) | 340 |  |  |
| Cn1cc(-c2cnn3c(N)c(-c4cccnc4)c(C4CCCNC4)nc23)cn1 (centres unmarked) | 507 |  | IC50 (CDK2/cyclin A; [1]): 1480 nM |
| Cn1cc(-c2cnn3c(N)c(C4CC4)c(C4CCCNC4)nc23)cn1 (centres unmarked) | 17 |  | IC50 (CDK2/cyclin A; [1]): 167 nM |
| C=C(C)c1c(C2CCCNC2)nc2c(-c3cnn(C)c3)cnn2c1N (centres unmarked) |  | 67 | IC50 (CDK2/cyclin A): 201 nM |
| Cn1cc(-c2cnn3c(N)c(-c4cnn(CCO)c4)c(C4CCCNC4)nc23)cn1 (centres unmarked) |  | 114 | IC50 (CDK2/cyclin A): 11700 nM |
| Cn1cc(-c2c(C3CCCNC3)nc3c(-c4cnn(C)c4)cnn3c2N)cn1 (centres unmarked) | 102 |  | IC50 (CDK2/cyclin A; [1]): 224000 nM |
| COC/C=C/c1c(C2CCCNC2)nc2c(-c3cnn(C)c3)cnn2c1N (centres unmarked) | 52 |  |  |
| Cn1cc(-c2cnn3c(N)c(-c4cccs4)c(C4CCCNC4)nc23)cn1 (centres unmarked) | 86 |  |  |
| CCc1c(C2CCCNC2)nc2c(-c3cnn(C)c3)cnn2c1N (centres unmarked) | 31 |  | IC50 (CDK2/cyclin A; [1]): 334 nM |
| Cn1cc(-c2cnn3c(N)c(C#N)c(C4CCCNC4)nc23)cn1 (centres unmarked) | 102 |  | IC50 (CDK2/cyclin A; [1]): 1720 nM |
| CC(=O)c1c(C2CCCNC2)nc2c(-c3cnn(C)c3)cnn2c1N (centres unmarked) |  | 8 | IC50 (CDK2/cyclin A): 33 nM |
| CC(=NO)c1c(C2CCCNC2)nc2c(-c3cnn(C)c3)cnn2c1N (centres unmarked) |  | 59 |  |
| CCC(=O)c1c(C2CCCNC2)nc2c(-c3cnn(C)c3)cnn2c1N (centres unmarked) |  | 12 | IC50 (CDK2/cyclin A): 38 nM |
| Cn1cc(-c2cnn3c(N)c(C(=O)Cc4ccccc4)c(C4CCCNC4)nc23)cn1 (centres unmarked) |  | 47 | IC50 (CDK2/cyclin A): 103 nM |
| CC#Cc1c(C2CCCNC2)nc2c(-c3cnn(C)c3)cnn2c1N (centres unmarked) | 44 |  | IC50 (CDK2/cyclin A; [1]): 1290 nM |
| Cc1nc2c(Br)cnn2c(N)c1CC(N)=O |  | 4750 | IC50 (CDK2/cyclin A; [2]): 1190 nM |
| CNC(=O)Cc1c(C)nc2c(Br)cnn2c1N |  | > 50000 | IC50 (CDK2/cyclin A; [2]): 41300 nM |
| Cc1nc2c(Br)cnn2c(N)c1CCO |  | 29100 | IC50 (CDK2/cyclin A; [2]): 69 nM |
| Cc1nc2c(Br)cnn2c(N)c1CCC(N)=O |  | > 50000 | IC50 (CDK2/cyclin A; [2]): 882 nM |
| Nc1c(-c2ccccc2)c(N2CC[C@H](N)C2)nc2c(Br)cnn12 |  | 22600 | melting point: 167 to 170 °C |
| CCc1c(N2CC[C@H](N)C2)nc2c(Br)cnn2c1N |  | 845 | IC50 (CDK2/cyclin A; [2]): 852 nM |
| Cc1c(N2CC[C@H](N)C2)nc2c(Br)cnn2c1N |  | 1580 | IC50 (CDK2/cyclin A; [2]): 754 nM |
| CC(O)c1c(C2CCCNC2)nc2c(-c3cnn(C)c3)cnn2c1N (single isomer, unassigned) [drawing 212] |  | 148 |  |
| CC(O)c1c(C2CCCNC2)nc2c(-c3cnn(C)c3)cnn2c1N (single isomer, unassigned) [drawing 213] |  | 18 |  |
